Source: ChEMBL document CHEMBL1152576, “E-Combretastatin and E-resveratrol structural modifications: antimicrobial and cancer cell growth inhibitory beta-E-nitrostyrenes” (Bioorg Med Chem, 2009)
Values after ≈ are worked out from the molar mass of the structure shown. Active and inactive are the calls of the source. The calls are words filed in the database; no cut-off is given here.

system: DU-145; test: Cytotoxicity against human DU145 cells after 48 hrs by sulforhodamine B assay; assay type: functional; conditions: not given

Compound | GI50
COc1ccc(/C=C/[N+](=O)[O-])cc1O | inactive

system: MCF7; test: Cytotoxicity against human MCF7 cells after 48 hrs by sulforhodamine B assay; assay type: functional; conditions: not given

Compound | GI50
COc1ccc(/C=C/[N+](=O)[O-])cc1O | inactive

system: Enterococcus faecalis; test: Antimicrobial activity against Enterococcus faecalis ATCC 29212 assessed clear zone in inhibition per disk by CLSI disk diffusion susceptibility assay; assay type: functional; conditions: not given

Compound | MIC
COc1ccc(/C=C/[N+](=O)[O-])cc1O | >100 µg

system: SF-295; test: Cytotoxicity against human SF295 cells after 48 hrs by sulforhodamine B assay; assay type: functional; conditions: not given

Compound | GI50
COc1ccc(/C=C/[N+](=O)[O-])cc1O | inactive

system: Streptococcus pneumoniae; test: Antimicrobial activity against Streptococcus pneumoniae ATCC 6303 after 24 hrs by broth microdilution susceptibility assay; assay type: functional; conditions: ATCC 6303, 24 h

Compound | MBC
COc1ccc(/C=C/[N+](=O)[O-])cc1O | > 64 µg/mL

system: P388; test: Cytotoxicity against mouse P388 cells after 48 hrs by sulforhodamine B assay; assay type: functional; conditions: not given

Compound | ED50
COc1ccc(/C=C/[N+](=O)[O-])cc1O | inactive

system: Micrococcus luteus; test: Antimicrobial activity against Micrococcus luteus Presque Isle 456 assessed clear zone in inhibition per disk by CLSI disk diffusion susceptibility assay; assay type: functional; conditions: not given

Compound | MIC
COc1ccc(/C=C/[N+](=O)[O-])cc1O | >100 µg

system: Candida albicans; test: Antimicrobial activity against Candida albicans ATCC 90028 assessed clear zone in inhibition per disk by CLSI disk diffusion susceptibility assay; assay type: functional; conditions: not given

Compound | MIC
COc1ccc(/C=C/[N+](=O)[O-])cc1O | 3.12 µg

system: SF-268; test: Cytotoxicity against human SF268 cells after 48 hrs by sulforhodamine B assay; assay type: functional; conditions: not given

Compound | GI50
COc1ccc(/C=C/[N+](=O)[O-])cc1O | inactive

system: Neisseria gonorrhoeae; test: Antimicrobial activity against Neisseria gonorrhoeae ATCC 49226 assessed clear zone of inhibition measured per disk by CLSI disk diffusion susceptibility assay; assay type: functional; conditions: not given

Compound | MIC
COc1ccc(/C=C/[N+](=O)[O-])cc1O | <0.78 µg

system: Streptococcus pneumoniae; test: Antimicrobial activity against Streptococcus pneumoniae ATCC 6303 assessed clear zone in inhibition per disk by CLSI disk diffusion susceptibility assay; assay type: functional; conditions: not given

Compound | MIC
COc1ccc(/C=C/[N+](=O)[O-])cc1O | 1.56 µg

system: Enterobacter cloacae; test: Antimicrobial activity against Enterobacter cloacae ATCC 13047 by broth microdilution susceptibility assay; assay type: functional; conditions: not given

Compound | MIC
COc1ccc(/C=C/[N+](=O)[O-])cc1O | > 64 µg/mL

system: BXPC-3; test: Cytotoxicity against human BxPC3 cells after 48 hrs by sulforhodamine B assay; assay type: functional; conditions: not given

Compound | GI50
COc1ccc(/C=C/[N+](=O)[O-])cc1O | inactive

system: Neisseria gonorrhoeae; test: Antimicrobial activity against Neisseria gonorrhoeae ATCC 49226 by broth microdilution susceptibility assay; assay type: functional; conditions: not given

Compound | MIC
COc1ccc(/C=C/[N+](=O)[O-])cc1O | 4 µg/mL (≈ 20.5 µM)

system: Staphylococcus aureus; test: Antimicrobial activity against Staphylococcus aureus ATCC 29213 assessed clear zone in inhibition per disk by CLSI disk diffusion susceptibility assay; assay type: functional; conditions: not given

Compound | MIC
COc1ccc(/C=C/[N+](=O)[O-])cc1O | 50 µg

system: Streptococcus pneumoniae; test: Antimicrobial activity against Streptococcus pneumoniae ATCC 6303 by broth microdilution susceptibility assay; assay type: functional; conditions: not given

Compound | MIC
COc1ccc(/C=C/[N+](=O)[O-])cc1O | 64 µg/mL (≈ 328 µM)

system: Escherichia coli; test: Antimicrobial activity against Escherichia coli ATCC 25922 by broth microdilution susceptibility assay; assay type: functional; conditions: not given

Compound | MIC
COc1ccc(/C=C/[N+](=O)[O-])cc1O | > 64 µg/mL

system: Candida albicans; test: Antifungal activity against Candida albicans ATCC 90028 after 48 hrs by broth microdilution susceptibility assay; assay type: functional; conditions: ATCC 90028, 48 h

Compound | MIC
COc1ccc(/C=C/[N+](=O)[O-])cc1O | 16 µg/mL (≈ 82 µM)

system: Enterococcus faecalis; test: Antimicrobial activity against Enterococcus faecalis ATCC 29212 by broth microdilution susceptibility assay; assay type: functional; conditions: not given

Compound | MIC
COc1ccc(/C=C/[N+](=O)[O-])cc1O | > 64 µg/mL

system: Neisseria gonorrhoeae; test: Antimicrobial activity against Neisseria gonorrhoeae ATCC 49226 after 24 hrs by broth microdilution susceptibility assay; assay type: functional; conditions: ATCC 49226, 24 h

Compound | MBC
COc1ccc(/C=C/[N+](=O)[O-])cc1O | 4 µg/mL (≈ 20.5 µM)

system: Micrococcus luteus; test: Antimicrobial activity against Micrococcus luteus Presque Isle 456 by broth microdilution susceptibility assay; assay type: functional; conditions: not given

Compound | MIC
COc1ccc(/C=C/[N+](=O)[O-])cc1O | > 64 µg/mL

system: Cryptococcus neoformans; test: Antifungal activity against Cryptococcus neoformans ATCC 90112 after 72 hrs by broth microdilution susceptibility assay; assay type: functional; conditions: ATCC 90112, 72 h

Compound | MIC
COc1ccc(/C=C/[N+](=O)[O-])cc1O | 32 µg/mL (≈ 164 µM)

system: Staphylococcus aureus; test: Antimicrobial activity against Staphylococcus aureus ATCC 29213 by broth microdilution susceptibility assay; assay type: functional; conditions: not given

Compound | MIC
COc1ccc(/C=C/[N+](=O)[O-])cc1O | > 64 µg/mL

system: Stenotrophomonas maltophilia; test: Antimicrobial activity against Stenotrophomonas maltophilia ATCC 13637 assessed clear zone in inhibition per disk by CLSI disk diffusion susceptibility assay; assay type: functional; conditions: not given

Compound | MIC
COc1ccc(/C=C/[N+](=O)[O-])cc1O | 25 µg

system: A498; test: Cytotoxicity against human A498 cells after 48 hrs by sulforhodamine B assay; assay type: functional; conditions: not given

Compound | GI50
COc1ccc(/C=C/[N+](=O)[O-])cc1O | inactive

system: not listed separately; test: Inhibition of tubulin polymerization; conditions: not given

Compound | IC50
COc1ccc(/C=C/[N+](=O)[O-])cc1O | 8.2 µM

system: OVCAR-3; test: Cytotoxicity against human OVCAR-3 cells after 48 hrs by sulforhodamine B assay; assay type: functional; conditions: not given

Compound | GI50
COc1ccc(/C=C/[N+](=O)[O-])cc1O | inactive

system: Escherichia coli; test: Antimicrobial activity against Escherichia coli ATCC 25922 assessed clear zone in inhibition per disk by CLSI disk diffusion susceptibility assay; assay type: functional; conditions: not given

Compound | MIC
COc1ccc(/C=C/[N+](=O)[O-])cc1O | 25 µg

system: Candida albicans; test: Antifungal activity against Candida albicans ATCC 90028 after 24 hrs by broth microdilution susceptibility assay; assay type: functional; conditions: ATCC 90028, 24 h

Compound | MFC
COc1ccc(/C=C/[N+](=O)[O-])cc1O | 32 µg/mL (≈ 164 µM)

system: Stenotrophomonas maltophilia; test: Antimicrobial activity against Stenotrophomonas maltophilia ATCC 13637 by broth microdilution susceptibility assay; assay type: functional; conditions: not given

Compound | MIC
COc1ccc(/C=C/[N+](=O)[O-])cc1O | > 64 µg/mL

system: Cryptococcus neoformans; test: Antimicrobial activity against Cryptococcus neoformans ATCC 90112 assessed clear zone in inhibition per disk by CLSI disk diffusion susceptibility assay; assay type: functional; conditions: not given

Compound | MIC
COc1ccc(/C=C/[N+](=O)[O-])cc1O | 0.78 µg

system: Enterobacter cloacae; test: Antimicrobial activity against Enterobacter cloacae ATCC 13047 assessed clear zone in inhibition per disk by CLSI disk diffusion susceptibility assay; assay type: functional; conditions: not given

Compound | MIC
COc1ccc(/C=C/[N+](=O)[O-])cc1O | 25 µg

system: SK-MEL-5; test: Cytotoxicity against human SK-MEL-5 cells after 48 hrs by sulforhodamine B assay; assay type: functional; conditions: not given

Compound | GI50
COc1ccc(/C=C/[N+](=O)[O-])cc1O | inactive

system: KM-20L2; test: Cytotoxicity against human KM20L2 cells after 48 hrs by sulforhodamine B assay; assay type: functional; conditions: not given

Compound | GI50
COc1ccc(/C=C/[N+](=O)[O-])cc1O | inactive

system: NCI-H460; test: Cytotoxicity against human NCI-H460 cells after 48 hrs by sulforhodamine B assay; assay type: functional; conditions: not given

Compound | GI50
COc1ccc(/C=C/[N+](=O)[O-])cc1O | inactive

system: Cryptococcus neoformans; test: Antifungal activity against Cryptococcus neoformans ATCC 90112 after 48 hrs by broth microdilution susceptibility assay; assay type: functional; conditions: ATCC 90112, 48 h

Compound | MFC
COc1ccc(/C=C/[N+](=O)[O-])cc1O | 32 µg/mL (≈ 164 µM)
